Measurements published in ChEMBL document CHEMBL1156520, “Inhibition of human dimethylarginine dimethylaminohydrolase-1 by S-nitroso-L-homocysteine and hydrogen peroxide. Analysis, quantification, and implications for hyperhomocysteinemia” (J Biol Chem, 2007).

What was measured:
[1] = biological target: N(G),N(G)-dimethylarginine dimethylaminohydrolase 1 (Homo sapiens, UniProt O94760); assay: Inhibition of human recombinant DDAH1
[2] = Inhibition of recombinant N-glutathione transferase/human DDAH1 fusion protein

Sequence of N(G),N(G)-dimethylarginine dimethylaminohydrolase 1 (O94760 whole entry, the tested form may be a part): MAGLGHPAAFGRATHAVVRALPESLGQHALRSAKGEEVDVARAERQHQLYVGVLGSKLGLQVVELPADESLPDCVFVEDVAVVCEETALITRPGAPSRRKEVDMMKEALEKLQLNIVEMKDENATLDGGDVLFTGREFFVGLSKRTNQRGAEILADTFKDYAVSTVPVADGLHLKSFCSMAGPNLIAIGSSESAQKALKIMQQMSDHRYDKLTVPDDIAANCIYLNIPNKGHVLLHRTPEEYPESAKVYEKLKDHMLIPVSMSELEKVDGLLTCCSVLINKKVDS

N[C@@H](CCS)C(=O)O [L-HOMOCYSTEINE]
IC50 [1]: 640 µM

NCCCC[C@H](N)C(=O)O [LYSINE]
Ki [2]: 2800 µM
